The values below come from patent US20130029983A1, “AMINOTHIENOPYRIDAZINE INHIBITORS OF TAU ASSEMBLY” (priority 2009, published 2013).

Experiment [1] has as its target T1, K18PL tau (Homo sapiens, UniProt P10636, P618L).
T1 construct: (K18PL; amino acids 244-369); made in house
As to the kind of experiment: K18PL tau centrifugation (sedimentation) assay, SDS-PAGE densitometry. It counts as biochemical. As to conditions: Table 4; K18PL tau centrifugation assay. Here is the method:
The determination of compound-induced effects on the amount of tau that remains soluble upon centrifugation, and EM visualization of tau species following incubation with test compounds, were as previously described (Crowe, A., Ballatore, C., Hyde, E., Trojanowski, J. Q., and Lee, V. M. Y. (2007) Biochemical and Biophysical Research Communications 358, 1-6).
(§1) The solubility of test compounds in the sodium acetate buffer used for subsequent fibrillization reactions was determined by turbidimetric measurements. Compounds were then evaluated in a heparin-induced tau assembly assay, in which the fibrillization of the truncated K18 tau fragment (comprised of four MT-binding repeats) bearing the P301L mutation (K18PL) found in FTDP-17, was monitored by thioflavine-T (ThT) binding and fluorescence (FIG. 3A). (Crowe, A.; et al., Identification of aminothienopyridazine inhibitors of tau assembly by quantitative high-throughput screening. Biochemistry 2009, 48, 7732-45.) The inhibitory activity of test compounds was then confirmed with an orthogonal sedimentation assay in which compound-treated fibrillizing mixtures were centrifuged and quantitation of K18PL tau in the soluble and insoluble fraction was performed by densitometric analyses of SDS-PAGE (FIG. 3B). […] Thus, the tau fibrillization assay was repeated in which both DMSO- and compound-treated mixtures were initially centrifuged for 30 min. prior to incubation (i.e., at time zero of the fibrillization reaction) to remove any pelletable material.

The target of experiment [2] is T1, K18PL tau. As to the kind of experiment: Heparin-induced K18PL tau fibrillization assay monitored by ThT fluorescence. The note with it: Table 4; for Tau ThT Assay % Inhib. / inhibition at 80 µM: highest tested concentration (80 μM); for inhibition at 80 µM: read-out: Tau ThT Assay % Inhib.; for IC50 / Tau ThT Assay Log IC50: logarithm of IC50, K18PL tau ThT fluorescence inhibition; for IC50: read-out: Tau ThT Assay Log IC50 (converted). It counts as biochemical. Here is the method: Tau fibril formation reactions were performed essentially as described (Crowe, A., Ballatore, C., Hyde, E., Trojanowski, J. Q., and Lee, V. M. Y. (2007) Biochemical and Biophysical Research Communications 358, 1-6). K18PL (2 μl of a 30 μM stock that also contained 0.24 μM Alexa Red-labeled K18PL) was dispensed into black 1536-well plates (Grenier) using a solenoid-based dispenser. Following transfer of 23 nL of test compound or DMSO vehicle by a pin tool from compound library plates, 2 μl/well of 40 μM heparin in reagent buffer was dispensed and the plate was centrifuged for 15 s at 1000 rpm in a table-top centrifuge. The fibrillization reaction proceeded for 6 hours at 37° C. in a humidified incubator (Kalypsys).
K18PL fibril formation was quantified with a ThT assay as previously described (Crowe, A., Ballatore, C., Hyde, E., Trojanowski, J. Q., and Lee, V. M. Y. (2007) Biochemical and Biophysical Research Communications 358, 1-6). Briefly, 1 μl/well of 62.5 μM ThT (Sigma) in 100 mM glycine, pH 8.5 (12.5 μM final concentration) was dispensed into 1536-well plates after completion of the fibrillization reaction and incubated at room temperature for 1 hour. Plates were read on an Envision fluorescence plate reader with an excitation of 450 nm and an emission setting of 510 nm.
Compound effects on tau assembly were determined for the ThT and FP assays using the formula 1−(Fcompound− FDMSO)/( Fcontrol− FDMSO), where Fcontrol denotes the median plate fluorescence values (ThT assay) or mP values (FP assay) of the non-fibrillizing K18 KD control wells, FDMSO denotes the median value of the DMSO control wells, and Fcompound denotes the compound well values. The resulting values were multiplied by 100 to obtain the percent inhibition of tau fibril formation.
as §1

T1 sequence (P10636 561-686 P618L): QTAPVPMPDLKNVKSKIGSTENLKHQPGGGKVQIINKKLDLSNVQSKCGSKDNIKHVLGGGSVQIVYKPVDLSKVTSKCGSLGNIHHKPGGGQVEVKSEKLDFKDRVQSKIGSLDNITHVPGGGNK

Take `CCOC(=O)c1nn(-c2ccc(C(C)C)cc2)c(=O)c2c(N)scc12` [CNDR-51347]: the “Tau Cent. Assay % Soluble” value in experiment [1] was 17%. Moreover, the “Tau ThT Assay % Inhib.” value in experiment [2] is listed as 8%.

By IC50 is commonly meant the point on the concentration scale where inhibition reaches its midpoint. Take `CCOC(=O)c1nn(-c2ccc([N+](=O)[O-])cc2)c(=O)c2c(N)scc12` [CNDR-51352, Ethyl 5-amino-3-(4-nitrophenyl)-4-oxo-3,4-dihydrothieno[3,4-d]pyridazine-1-carboxylate]: the “Tau Cent. Assay % Soluble” value in experiment [1] amounted to 59%. In experiment [2], the inhibition at 80 µM came out at 69% and the IC50 was 50.1 µM.

For the compound `CCOC(=O)c1nn(-c2ccc(N)cc2)c(=O)c2c(N)scc12` [CNDR-51355, Ethyl 5-amino-3-(4-aminophenyl)-4-oxo-3,4-dihydrothieno[3,4-d]pyridazine-1-carboxylate], the “Tau Cent. Assay % Soluble” value in experiment [1] was found to be 67%. Also, in experiment [2], the inhibition at 80 µM was found to be 74% and the IC50 is 1.26 µM.

As to `CCOC(=O)c1nn(-c2ccc(Cl)cc2)c(=O)c2c(NC)scc12` [CNDR-51360, Ethyl 3-(4-chlorophenyl)-5-(methylamino)-4-oxo-3,4-dihydrothieno[3,4-d]pyridazine-1-carboxylate], in experiment [1], the “Tau Cent. Assay % Soluble” value is recorded as 51%. In experiment [2], the inhibition at 80 µM came out at 39% and the IC50 is 5.01 µM.

As for `CCOC(=O)c1nn(-c2ccc(O)cc2)c(=O)c2c(N)scc12` [CNDR-51363, Ethyl 5-amino-3-(4-hydroxyphenyl)-4-oxo-3,4-dihydrothieno[3,4-d]pyridazine-1-carboxylate], the “Tau Cent. Assay % Soluble” value in experiment [1] amounted to 69%. Further, in experiment [2], the inhibition at 80 µM was found to be 81% and the “Tau ThT Assay Log IC50” value is reported as −5.3.

On to `CCOC(=O)c1nn(-c2ccc(OC(F)(F)F)cc2)c(=O)c2c(N)scc12` [CNDR-51369, Ethyl 5-amino-4-oxo-3-(4-(trifluoromethoxy)phenyl)-3,4-dihydrothieno[3,4-d]pyridazine-1-carboxylate], for which the “Tau Cent. Assay % Soluble” value in experiment [1] was determined as 29%. Besides, in experiment [2], the inhibition at 80 µM was found to be 41% and the IC50 was 2 µM.

As for `Nc1scc2c(C(=O)O)nn(-c3ccc(OC(F)(F)F)cc3)c(=O)c12` [CNDR-51370, 5-Amino-4-oxo-3-(4-(trifluoromethoxy)phenyl)-3,4-dihydrothieno[3,4-d]pyridazine-1-carboxylic acid], the “Tau Cent. Assay % Soluble” value in experiment [1] amounted to 65%. In experiment [2], the inhibition at 80 µM was 88% and the IC50 was 6.31 µM.

`CCOC(=O)c1nn(-c2ccc(C(F)(F)F)cc2)c(=O)c2c(N)scc12` [CNDR-51373, Ethyl 5-amino-4-oxo-3-(4-(trifluoromethyl)phenyl)-3,4-dihydrothieno[3,4-d]pyridazine-1-carboxylate]: the “Tau Cent. Assay % Soluble” value in experiment [1] turned out to be 27%. In addition, in experiment [2], the inhibition at 80 µM was determined as 48% and the IC50 was 10 µM.

In the case of `Nc1scc2c(C(=O)O)nn(-c3ccc(O)cc3)c(=O)c12` [CNDR-51374, 5-Amino-3-(4-hydroxyphenyl)-4-oxo-3,4-dihydrothieno[3,4-d]pyridazine-1-carboxylic acid], in experiment [1], the “Tau Cent. Assay % Soluble” value worked out at 70%. Further, in experiment [2], the inhibition at 80 µM was 84% and the “Tau ThT Assay Log IC50” value is −5.4.

With `CC(C)NC(=O)c1nn(-c2ccc(OC(F)(F)F)cc2)c(=O)c2c(N)scc12` [CNDR-51375, 5-Amino-N-isopropyl-4-oxo-3-(4-(trifluoromethoxy)phenyl)-3,4-dihydrothieno[3,4-c]pyridazine-1-carboxamide], the “Tau Cent. Assay % Soluble” value in experiment [1] amounted to 42%. Besides, in experiment [2], the inhibition at 80 µM is 67%.

For the compound `CC(C)NC(=O)c1nn(-c2ccc(O)cc2)c(=O)c2c(N)scc12` [CNDR-51376, 5-Amino-3-(4-hydroxyphenyl)-N-isopropyl-4-oxo-3,4-dihydrothieno[3,4-d]pyridazine-1-carboxamide], the “Tau Cent. Assay % Soluble” value in experiment [1] was 84%. Besides, in experiment [2], the inhibition at 80 µM came out at 86% and the “Tau ThT Assay Log IC50” value is −4.8.

As to `NNC(=O)c1nn(-c2ccc(Cl)cc2)c(=O)c2c(N)scc12` [CNDR-51378, 5-Amino-3-(4-chlorophenyl)-4-oxo-3,4-dihydrothieno[3,4-d]pyridazine-1-carbohydrazide], in experiment [1], the “Tau Cent. Assay % Soluble” value is given as 77%. In experiment [2], the inhibition at 80 µM worked out at 93% and the IC50 was 3.16 µM.

Regarding `CCOC(=O)c1nn(-c2cccc(Cl)c2)c(=O)c2c(N)scc12` [CNDR-51387], the “Tau Cent. Assay % Soluble” value in experiment [1] was 71%. In experiment [2], the “Tau ThT Assay % Inhib.” value was 90% and the “Tau ThT Assay Log IC50” value is listed as −5.7.

For `Nc1scc2c(C(=O)O)nn(-c3cccc(Cl)c3)c(=O)c12` [CNDR-51388, 5-Amino-3-(3-chlorophenyl)-4-oxo-3,4-dihydrothieno[3,4-d]pyridazine-1-carboxylic acid], the “Tau Cent. Assay % Soluble” value in experiment [1] is given as 71%. In addition, in experiment [2], the inhibition at 80 µM is 92% and the “Tau ThT Assay Log IC50” value is listed as −5.8.

With `Nc1scc2c(C(=O)O)nn(-c3ccc(Br)cc3)c(=O)c12` [CNDR-51389, 5-Amino-3-(4-bromophenyl)-4-oxo-3,4-dihydrothieno[3,4-d]pyridazine-1-carboxylic acid], in experiment [1], the “Tau Cent. Assay % Soluble” value was 78%. In experiment [2], the inhibition at 80 µM is 95% and the IC50 is 3.16 µM.

Turning to `CC(C)NC(=O)c1nn(-c2cccc(Cl)c2)c(=O)c2c(N)scc12` [CNDR-51391, 5-Amino-3-(3-chlorophenyl)-N-isopropyl-4-oxo-3,4-dihydrothieno[3,4-d]pyridazine-1-carboxamide], the “Tau Cent. Assay % Soluble” value in experiment [1] was found to be 62%. Further, in experiment [2], the inhibition at 80 µM worked out at 83% and the IC50 is 1.26 µM.

As for `CCOC(=O)c1nn(-c2ccc(Cl)cc2)c(=O)c2c(N)sc(Cl)c12` [CNDR-51393, Ethyl 5-amino-7-chloro-3-(4-chlorophenyl)-4-oxo-3,4-dihydrothieno[3,4-d]pyridazine-1-carboxylate], the “Tau Cent. Assay % Soluble” value in experiment [1] was 65%. Further, in experiment [2], the inhibition at 80 µM stood at 88% and the “Tau ThT Assay Log IC50” value is reported as −5.7.

Turning to `CCOC(=O)c1nn(-c2ccc(F)cc2)c(=O)c2c(N)scc12` [CNDR-51394, Ethyl 5-amino-3-(4-fluorophenyl)-4-oxo-3,4-dihydrothieno[3,4-d]pyridazine-1-carboxylate], the “Tau Cent. Assay % Soluble” value in experiment [1] was 63%. Further, in experiment [2], the inhibition at 80 µM was found to be 77% and the “Tau ThT Assay Log IC50” value is −6.0.

On to `Nc1scc2c(C(=O)O)nn(-c3ccc(F)cc3)c(=O)c12` [CNDR-51395, 5-Amino-3-(4-fluorophenyl)-4-oxo-3,4-dihydrothieno[3,4-d]pyridazine-1-carboxylic acid], for which the “Tau Cent. Assay % Soluble” value in experiment [1] is given as 83%. Also, in experiment [2], the inhibition at 80 µM was 84% and the “Tau ThT Assay Log IC50” value is listed as −5.7.

With `CC(C)NC(=O)c1nn(-c2ccc(F)cc2)c(=O)c2c(N)scc12` [CNDR-51396, 5-Amino-3-(4-fluorophenyl)-N-isopropyl-4-oxo-3,4-dihydrothieno[3,4-d]pyridazine-1-carboxamide], the “Tau Cent. Assay % Soluble” value in experiment [1] is on record as 77%. In experiment [2], the inhibition at 80 µM stood at 89% and the “Tau ThT Assay Log IC50” value is −5.8.

With `Nc1scc2c(C(=O)NC3CC3)nn(-c3ccc(F)cc3)c(=O)c12` [CNDR-51397, 5-Amino-N-cyclopropyl-3-(4-fluorophenyl)-4-oxo-3,4-dihydrothieno[3,4-d]pyridazine-1-carboxamide], the “Tau Cent. Assay % Soluble” value in experiment [1] turned out to be 78%. Further, in experiment [2], the inhibition at 80 µM stood at 88% and the “Tau ThT Assay Log IC50” value is −5.6.

Regarding `Cc1nn(-c2ccc(Cl)cc2)c(=O)c2c(N)scc12` [CNDR-51400], the “Tau Cent. Assay % Soluble” value in experiment [1] turned out to be 90%. Moreover, in experiment [2], the “Tau ThT Assay % Inhib.” value worked out at 87% and the “Tau ThT Assay Log IC50” value was −5.9.
